Measurements from patent US6815208B2, “Chemical treatment for hydrostatic test” (Champion Technologies, Inc., priority 2001, dated 2004).
Read-outs that look alike come from different tables or passages of the source.

Legend:
[1] = tested on: SRB; experiment: Effect of special blends on SRB growth in natural (Galveston) seawater; format: cell-based; conditions: 25 PPM
Experimental: (§1) More than thirty special blends containing NaOH, oxygen scavenger and scale inhibitor were made. Time kill studies were conducted to evaluate the effect of these special blends on bacterial growth. For the time kill studies cultures of SRB and anaerobic bacteria as well as filtered Galveston seawater were used. Galveston seawater was filtered through 50 μm filter. The time kill studies were basically the same as in the raised pH studies described earlier. The only difference was that in these studies, the pH was raised by the special blends and natural seawater was included in addition to bacterial cultures. Usually, 1,500 to 3,000 PPM of the special blends were used to raise the pH to 9.6-9.8. In some experiments, the seawater was treated only with NaOH or oxygen scavenger for comparison purposes. A piece of mild carbon steel coupon (1″×0.3″) was inserted into the treated water to monitor MIC and corrosion in all of the experiments.
(§2) The bacterial growth was monitored for 20 days. The monitoring of coupons in the treated samples continued for weeks to months. The products that inhibited the bacterial growth and kept the coupons clean were selected. These selected products were re-evaluated using the bacterial cultures and the filtered seawater.

[2] = tested on: Sulfate Reducing Bacteria (SRB); experiment: Evaluation of biocides in pH adjusted medium containing SRB, with coupons; format: cell-based; conditions: for Log of Bacterial Cells/ml: SRB medium
Experimental: (§3) In these experiments, SRB or FAAPB cultures were treated with various concentrations of biocides, after raising the pH to 9.8-10.00. The bacterial growth in the treated samples was estimated by the serial dilution method. The visual appearance of coupons in treated and untreated samples was recorded. An aldehyde and phosphonium quat were used for biocides.

[3] = Deactivation of biocides / biocide residual in Galveston seawater; format: physicochemical
Experimental: The pH of fresh water or seawater was adjusted and desired concentrations of biocides were added. The concentration of biocides in the water was measured periodically. Such monitoring provided information on the deactivation rate of biocides. To monitor the concentration of THPS and glutaraldehyde a LaMotte kit and a Glutatect kit were used, respectively. The LaMotte Company supplies the LaMotte kit. Alden Scientific manufactures the Glutatect kit. After the complete deactivation of biocide, the water was tested for aquatic toxicity.
Galveston seawater was treated with NaOH solution and with blends of NaOH and chemicals separately to raise the pH to 9-10.25. 12-100 PPM of 50% glutaraldehyde was added to each aliquot of pH-adjusted water. The treated water was left at room temperature. The concentration of glutaraldehyde was monitored for 9-20 days, using Glutatect kit. In another experiment, 100 PPM of 75% THPS was added to Galveston seawater following pH adjustment with NaOH. THPS concentration was monitored using a LaMotte Kit.

[4] = tested on: SRB; experiment: Time kill study of special blends, SRB culture; format: cell-based; conditions: 50 PPM (pH ~7)
Experimental: as §1, §2

[5] = tested on: anaerobic bacteria; experiment: Time kill study of special blends, anaerobic bacteria culture; format: cell-based; conditions: 50 PPM (pH ~7)
Experimental: as §1, §2

[6] = tested on: sulfate reducting bacteria (SRB); experiment: Time kill study of SRB cultures at raised pH (NaOH), serial dilution; format: cell-based; conditions: 200 PPM, combined with high pH
Experimental: Cultures (in API media) of sulfate reducting bacteria (SRB) and facultative anaerobic acid producing bacteria (FAAPB) were treated separately with dilute NaOH solution to raise the pH of the culture to 9.8-10.00. The level of bacterial growth was estimated by the serial dilution method. In some experiments oxygen scavenger (ammonium bisulfite) was also included to see if it has any effect on bacterial growth. No coupons were used in these experiments.
as §3

[7] = anaerobic condition, cited from earlier work
[8] = tested on: M. Bahia; experiment: Static renewal toxicity test of treated seawater; format: in vivo; conditions: 150 PPM of THPS
Experimental: (§4) Three of the most promising special blends were tested 249C, 246C, and 283C. Galveston seawater was treated separately with 249C, 246C and 283C at 3,000 PPM, 2,000 PPM and 1,450 PPM respectively. The treated water was then subjected to a static renewal toxicity test (using Mysid and Menidid species). The EPA requires this toxicity test for water discharged into the Gulf of Mexico.

[9] = tested on: M. Beryllina; experiment: Static renewal toxicity test of treated seawater; format: in vivo; conditions: 150 PPM of THPS
Experimental: as §4

[10] = Sea Water without pH adjustment, 100 PPM added

Row | Compound | Log of Bacterial Cells/ml [1] | PPM Biocide after 9 Days ([3]; Sea Water pH 10, 100 PPM added) | PPM Biocide at 0 Hr ([3]; Sea Water pH 10, 100 PPM added) | PPM Biocide, 2 Days ([3]; Sea Water pH 10, 100 PPM added) | PPM Biocide after 9 Days [3, 10] | PPM Biocide at 0 Hr [3, 10] | PPM Biocide, 2 Days [3, 10] | Log of Bacterial Cells/ml, SRB [4] | Log of Bacterial Cells/ml, Anaerobic [5] | also measured
1 | O=CCCCC=O [Glutaraldehyde, glutaraldehyde] | 1 Log of Bacterial Cells/ml | 10-20 PPM | ˜40 PPM | 20-40 PPM | 20-40 PPM | ˜40 PPM | 20-40 PPM | 0-1 Log of Bacterial Cells/ml | ≧3 Log of Bacterial Cells/ml | Log of Bacterial Cells/ml ([2]; Concentration 12.5): 0 Log of Bacterial Cells/ml; Log of Bacterial Cells/ml ([2]; Concentration 25): 0-1 Log of Bacterial Cells/ml; Log of Bacterial Cells/ml ([2]; Concentration 75): 0 Log of Bacterial Cells/ml; Log of Bacterial Cells/ml ([2]; Concentration 150): 0 Log of Bacterial Cells/ml; concentration sufficient to inhibit planktonic as well as sessile bacterial growths ([2]; water with pH adjusted to 10): 10-12 PPM; biocide residual ([3]; seawater treated with special blends, after 5-10 days): below 5 PPM
2 | N.O=S(O)O [NH4HSO3, ammonium bisulfite] | – | – | – | – | – | – | – | – | – | Log of SRB Cells/mL ([6]; Experiment 1 (7 Days)): 2 Log of SRB Cells/mL; Log of SRB Cells/mL ([6]; Experiment 2 (7 Days)): 2 Log of SRB Cells/mL
3 | tetrakis hydroxymethyl phosphonium sulfate [THPS] | 1 Log of Bacterial Cells/ml | 14 PPM | 136 PPM | 58 PPM | 68 PPM | 132 PPM | 104 PPM | 0-1 Log of Bacterial Cells/ml | ≧3 Log of Bacterial Cells/ml | half life ([7]; pH 7): 72 days; half life ([7]; pH 9): 7 days; Log of Bacterial Cells/ml ([2]; Concentration 18.75): 0-3 Log of Bacterial Cells/ml; Log of Bacterial Cells/ml ([2]; Concentration 37.5): 0-1 Log of Bacterial Cells/ml; Log of Bacterial Cells/ml ([2]; Concentration 112.5): 0 Log of Bacterial Cells/ml; LOEC [8]: <9.6/9.6%; NOEC [8]: <9.6/9.6%; LOEC [9]: 24.6%; NOEC [9]: 12.0%
